{
  "source": "patent US8114843B2",
  "about": "“Photoreactive regulator of protein function and methods of use thereof” (The Regents of the University of California, priority 2005, dated 2012)",
  "key": {"Kv1.2": {"biological_target": "T1, Kv1.2 (Homo sapiens, UniProt P16389)", "T1 construct": "expressed in transfected cells; host or cells: HEK cells", "T1 sequence (P16389 whole entry)": "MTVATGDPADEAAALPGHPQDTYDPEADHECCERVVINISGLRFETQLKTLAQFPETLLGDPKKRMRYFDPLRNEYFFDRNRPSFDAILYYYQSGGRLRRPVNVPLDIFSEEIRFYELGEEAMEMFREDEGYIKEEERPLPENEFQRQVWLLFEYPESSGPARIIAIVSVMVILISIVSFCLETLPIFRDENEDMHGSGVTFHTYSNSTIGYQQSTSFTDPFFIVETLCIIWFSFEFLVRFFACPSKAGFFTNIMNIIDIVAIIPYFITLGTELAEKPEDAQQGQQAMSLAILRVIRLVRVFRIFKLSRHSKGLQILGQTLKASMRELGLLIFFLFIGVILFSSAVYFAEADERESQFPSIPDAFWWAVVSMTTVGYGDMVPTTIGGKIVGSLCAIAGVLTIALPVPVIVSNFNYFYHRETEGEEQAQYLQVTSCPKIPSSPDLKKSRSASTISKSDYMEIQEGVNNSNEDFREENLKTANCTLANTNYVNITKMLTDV", "assay": "PAL photoswitching, whole-cell patch clamp in HEK cells", "assay_type": "cell-based", "description": "(§1) Cell culture and transfection. HEK293 cells were grown in DMEM containing 5% fetal bovine serum, at 37° C., 7% CO2. For electrophysiology, cells were plated at 12×10^5 cells/cm^2 on poly-L-lysine coated coverslips and transfected using the calcium phosphate method. Recordings were performed 24-36 hours after transfection.\n(§2) PAL attachment. HEK293 and hippocampal cells were rinsed in extracellular solution containing in mM: 138 NaCl, 1.5 KCl, 1.2 MgCl2, 2.5 CaCl2, 5 HEPES, 10 glucose and incubated at 37° C. in the dark with 200-250 μM PAL for 15 minutes. For slices, AAQ was diluted to 200 μM in aCSF and treatment was performed in the dark at room temperature for 10 minutes.\n(§3) Electrophysiological recording. Recordings from HEK293 and hippocampal neurons were made in the whole-cell patch clamp configuration using a PC-501A amplifier (Warner Instruments). Pulse protocols and measurements were carried out with pCLAMP and a Digidata 1322 interface (Axon Instruments). For voltage-clamp experiment, cells were held at −70 mV. Data was recorded at 20 kHz and filtered at 2 kHz. Recording pipettes with 2.5-4 MΩ resistance were filled with intracellular solution containing in mM: 10 NaCl, 135 K-gluconate, 10 HEPES, 2 MgCl2, 2 MgATP, 1 EGTA, pH 7.4.\n(§4) Illumination was provided using a xenon lamp (Sutter Instruments) with narrow band pass filters (380 BP10 for UV and 500 BP5 for visible light respectively). Excitation filters were changed using a lambda 10-2 filter changer (Sutter Instruments) controlled via pCLAMP software.\n(§5) Percent photoswitching was defined as the difference between current in UV and visible light divided by current in UV. All data shown in bar graphs are averages±standard error of the mean."}, "Kv3.1": {"biological_target": "T2, Kv3.1 (Homo sapiens, UniProt P48547)", "T2 construct": "expressed in transfected cells; host or cells: HEK cells", "T2 sequence (P48547 1-511)": "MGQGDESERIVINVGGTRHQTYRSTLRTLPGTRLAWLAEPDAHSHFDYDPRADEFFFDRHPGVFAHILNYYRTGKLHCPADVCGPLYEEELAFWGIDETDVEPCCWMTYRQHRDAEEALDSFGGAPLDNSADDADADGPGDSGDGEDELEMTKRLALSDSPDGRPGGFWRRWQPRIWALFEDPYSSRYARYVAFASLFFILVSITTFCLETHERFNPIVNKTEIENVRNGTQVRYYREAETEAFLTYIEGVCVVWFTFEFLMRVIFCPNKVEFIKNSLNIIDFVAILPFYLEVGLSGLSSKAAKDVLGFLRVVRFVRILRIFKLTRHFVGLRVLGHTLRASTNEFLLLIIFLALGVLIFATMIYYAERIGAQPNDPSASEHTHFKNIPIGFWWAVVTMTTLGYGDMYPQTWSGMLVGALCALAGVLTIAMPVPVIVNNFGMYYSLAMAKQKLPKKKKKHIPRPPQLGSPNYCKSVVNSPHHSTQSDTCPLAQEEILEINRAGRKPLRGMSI", "assay": "PAL photoswitching, whole-cell patch clamp in HEK cells", "assay_type": "cell-based", "description": "as §1, §2, §3, §4, §5"}, "Kv2.1": {"biological_target": "T3, Kv2.1 (Homo sapiens, UniProt Q14721)", "T3 construct": "expressed in transfected cells; host or cells: HEK cells", "T3 sequence (Q14721 1-858)": "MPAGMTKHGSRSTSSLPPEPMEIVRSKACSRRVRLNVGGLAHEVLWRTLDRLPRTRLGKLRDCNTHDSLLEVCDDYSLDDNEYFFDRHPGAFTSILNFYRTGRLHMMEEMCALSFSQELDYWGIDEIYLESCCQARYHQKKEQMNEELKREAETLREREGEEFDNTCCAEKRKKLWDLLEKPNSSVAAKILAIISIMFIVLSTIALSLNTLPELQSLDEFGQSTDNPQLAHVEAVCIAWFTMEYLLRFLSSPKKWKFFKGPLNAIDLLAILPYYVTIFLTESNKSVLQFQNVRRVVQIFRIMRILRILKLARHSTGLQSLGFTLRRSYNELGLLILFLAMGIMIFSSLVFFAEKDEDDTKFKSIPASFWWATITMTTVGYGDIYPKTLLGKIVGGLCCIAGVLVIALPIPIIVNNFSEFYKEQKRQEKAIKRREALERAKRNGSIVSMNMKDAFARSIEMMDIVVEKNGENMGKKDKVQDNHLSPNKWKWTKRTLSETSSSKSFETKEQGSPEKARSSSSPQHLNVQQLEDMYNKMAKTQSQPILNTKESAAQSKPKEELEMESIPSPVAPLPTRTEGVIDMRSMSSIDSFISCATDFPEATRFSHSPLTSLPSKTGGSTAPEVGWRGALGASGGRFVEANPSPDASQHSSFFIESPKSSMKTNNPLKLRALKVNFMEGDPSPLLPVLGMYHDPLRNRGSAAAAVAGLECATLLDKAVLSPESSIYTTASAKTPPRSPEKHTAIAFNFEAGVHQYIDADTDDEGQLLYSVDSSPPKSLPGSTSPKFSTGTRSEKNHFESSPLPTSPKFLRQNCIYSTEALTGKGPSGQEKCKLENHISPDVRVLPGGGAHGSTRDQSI", "assay": "PAL photoswitching, whole-cell patch clamp in HEK cells", "assay_type": "cell-based", "description": "as §1, §2, §3, §4, §5"}, "rat retina": {"system": "rat retina", "assay": "AAQ injection into the rat eye (ERG, retinal toxicity)", "assay_type": "in vivo", "description": "Rats were dark-adapted overnight, and the entire procedure was done under very dim red light. Rats were anesthetized and placed in a standard electroretinogram (ERG) setup. Recording electrodes were embedded in contact-like cups, which were mounted onto each eye with a conductive adherent fluid. Reference electrodes were placed in the mouth. A light source emitted brief flashes of white light at various intensities. The electrical response of the retina to each light flash was recorded; three trials per intensity were averaged together. Under normal conditions, the ERG will consist of a small downward deflection (A-wave), which reflects the activity of photoreceptors, and a larger upward deflection (B-wave), which reflects the activity of bipolar cells."}, "[1]": {"system": "transient inward current (voltage-gated Na+ and Ca2+ currents) in neurons", "assay": "Voltage-clamp of transient inward current in PAL-treated neurons", "assay_type": "cell-based, rat", "conditions": "Cs+ in the patch pipette", "description": "as §3, with “Recording pipettes with 2.5-4 MΩ resistance were filled with intracellular solution containing in mM: 10 NaCl, 135 K-gluconate, 10 HEPES, 2 MgCl2, 2 MgATP, 1 EGTA, pH 7.4.” left out"}},
  "data": [
    {"smiles": "C=CC(=O)Nc1ccc(/N=N/c2ccc(NC(=O)C[N+](CC)(CC)CC)cc2)cc1", "note": "[AAQ]", "values": [
      {"measurement": "light-sensitivity imparted on channel", "setting": "Kv1.2", "value": "imparted light-sensitivity"},
      {"measurement": "light-sensitivity imparted on channel", "setting": "Kv3.1", "value": "imparted light-sensitivity"},
      {"measurement": "light-sensitivity imparted on channel", "setting": "Kv2.1", "value": "imparted light-sensitivity"},
      {"measurement": "toxic consequences on rat retina (ERG)", "setting": "rat retina; 7 days post injection", "value": "without toxic consequences"},
      {"measurement": "effects on retinal neurons after injection into the vitreous humor", "setting": "rat retina; rat eye", "value": "no detectable deleterious effects"},
      {"measurement": "light-sensitivity of transient inward current", "setting": "[1]", "value": "does not become light-sensitive"}
    ]}
  ]
}
